Assay results published in US12606559B2, “JAK inhibitor compounds, methods for synthesizing same and use thereof” (GALDERMA HOLDING SA, priority 2020, dated 2026).
“And” between values parts separate entries of the source, which are not always exact repeats. Equal values may be shown once. Read-outs that look alike come from different tables or passages of the source.

Experiments:
[1] = Chrom logD pH 7.4; type: physicochemical
[2] = Protein binding analysis (RED), minipig plasma; type: in vitro ADME; conditions: male, Gottingen, pH 7.4, RED 4 h, read-out: minipig FU
Description: (§1) The protein binding was assessed in plasma of Human, male balb-c mice, male Wistar Han rat, male Gottingen minipig by rapid equilibrium dialysis (RED) devices. After the plasma and buffer phosphate 50 mM pH7.4 were equilibrated at 37° C., the compound was added to plasma to reach a final concentration of 5 μM. An aliquot of plasma was withdrawn immediately. Equilibration under mild agitation was continued for 4 h. The plasma and buffer were sampled and samples were quenched with 4 volumes of acetonitrile and centrifuged. Supernatant was quantified in HPLC/MS/MS to calculate the recovery and the percentage of compound dissolved in the buffer (unbound) and bound to plasma proteins.

[3] = BALB/c ByJ Rj, in vivo
[4] = pKa; type: physicochemical
[5] = Human skin ex vivo: flux through skin and dermis concentration (Franz cells); type: in vitro ADME; conditions: PG/H2O cream 1 mg/mL
[6] = Protein binding analysis (RED), rat plasma; type: in vitro ADME, male Wistar Han rat; conditions: 5 μM, RED 4 h
Description: as §1

[7] = biological target: T1, acetylcholinesterase (h) (Homo sapiens, UniProt P22303); test: CEREP Safety Screen-44: acetylcholinesterase (h); type: biochemical
T1 construct: CEREP
Description: An in vitro pharmacology assay was conducted to assess the capability of the compounds to interact with different pharmacological targets when tested at 10 μM in different binding and enzyme/uptake assays. The included targets are indicative of potential effects in major organs and drug-drug interactions.
Compound binding was calculated as a % inhibition of the binding of a radioactively labelled ligand specific for each target. […] Results showing an inhibition or stimulation higher than 50% are considered to represent significant effects of the test compounds.

[8] = tested on: Salmonella typhimurium TA98 and TA100; test: Mini Ames assay (TA98 and TA100); type: cell-based; conditions: for AMES: TA98 and TA100, with and without S9; for increase in the mean number of revertants: TA98 and TA 100 with or without metabolic activation
Description: The Ames test in micro-method (in 6-well plates=mini Ames) follows the general principles of the standard Ames's technique. The Ames test used strains of bacteria Salmonella typhimurium that carry mutations in the genes involved in histidine synthesis. These strains are auxotrophic mutants, they require histidine for growth but cannot produce it. The assay was used to observe the ability of the test item to induce reverse mutations allowing the bacteria to grow in a histidine-free medium. The number of bacteria that revert and acquire the wild-type ability to grow in the absence of histidine can be estimated by counting the colonies that develop upon incubation. The use of different strains allows the identification of different mechanisms of gene mutation (TA98 for detection of frameshift mutations and TA100 for detection of base pair substitutions).
In a number of cases, the test item itself is not directly mutagenic but its metabolic derivatives are.
A toxicity assessment was performed on complete nutriment agar plate (with histidine) to define the highest concentration to be used in the genotoxicity assay. Solutions were prepared in 100% DMSO. The first concentration analyzed in the well (6-well plate) was 500 μg per plate followed by 7 serial dilutions (2 times factor of dilution). Each concentration was tested in triplicate on each strain and for each condition of treatment. The viability of the positive and negative controls was analyzed for each strain, in the presence or absence of metabolic activation system, and were compared with historical data to validate the study. If no bacterial toxicity occurred, the highest concentration tested for genotoxicity was […]. If toxicity occurred, a viability above than 70% defined the highest concentration tested.
The genotoxicity assessment was performed on minimal agar plate (without histidine) following the same dilution procedure as for the cytotoxicity assessment. DMSO and phosphate buffer controls were used as negative controls. 2-Nitrofluorene (2NF), 2-Aminoanthracene (2AA) and 4-Nitro-1.2 phenylenediamine (DANB) were selected as positive controls.
Test items, positive and negative controls were incubated with the 2 bacterial strains. After 48 h incubation at 37° C. with and without metabolic activation (S9), the prototrophic mutant colonies that had grown on the plates were counted. The results were expressed as the mean number of revertants for each condition tested (3 replicates each) and for each concentration of the test item and controls. Induction ration, corresponding to the ratio of revertants in presence of test item versus spontaneous revertant, was determined for each concentration.

[9] = biological target: T2, hERG (Human Ether-a-go-go Related Gene) channel in CHO-K1 cells (Homo sapiens, UniProt Q12809); test: In vitro hERG channel, whole cell patch clamp; type: cell-based; conditions: up to 30 μM
T2 construct: expressed in transfected cells; host or cells: CHO-K1
Description: Blockade of the delayed rectifier potassium current (IKr) encoded by hERG gene (human ether a go go-related gene) can lead to QT interval prolongation and is therefore investigated as part of the cardiac risk assessment. This channel is critical for the repolarisation of the cardiac membrane. The effect of the compounds on IKr was assessed by whole cell patch clamp in stably transfected CHO-K1 cells expressing hERG (Human Ether-a-go-go Related Gene) channel following superfusion at different concentrations up to 30 μM.

[10] = Plasma exposure, dermis concentration and skin/plasma ratio compared to Ruxolitinib; conditions: in vivo
[11] = Thermodynamic solubility PG_H2O pH 6 2/8; type: physicochemical; conditions: PG/H2O 2/8, pH 6
[12] = Systemic level in PD/IL6 mouse topical dose response; conditions: topical 10 mM, PG/Acetone/Transcutol

T2 sequence (Q12809 whole entry): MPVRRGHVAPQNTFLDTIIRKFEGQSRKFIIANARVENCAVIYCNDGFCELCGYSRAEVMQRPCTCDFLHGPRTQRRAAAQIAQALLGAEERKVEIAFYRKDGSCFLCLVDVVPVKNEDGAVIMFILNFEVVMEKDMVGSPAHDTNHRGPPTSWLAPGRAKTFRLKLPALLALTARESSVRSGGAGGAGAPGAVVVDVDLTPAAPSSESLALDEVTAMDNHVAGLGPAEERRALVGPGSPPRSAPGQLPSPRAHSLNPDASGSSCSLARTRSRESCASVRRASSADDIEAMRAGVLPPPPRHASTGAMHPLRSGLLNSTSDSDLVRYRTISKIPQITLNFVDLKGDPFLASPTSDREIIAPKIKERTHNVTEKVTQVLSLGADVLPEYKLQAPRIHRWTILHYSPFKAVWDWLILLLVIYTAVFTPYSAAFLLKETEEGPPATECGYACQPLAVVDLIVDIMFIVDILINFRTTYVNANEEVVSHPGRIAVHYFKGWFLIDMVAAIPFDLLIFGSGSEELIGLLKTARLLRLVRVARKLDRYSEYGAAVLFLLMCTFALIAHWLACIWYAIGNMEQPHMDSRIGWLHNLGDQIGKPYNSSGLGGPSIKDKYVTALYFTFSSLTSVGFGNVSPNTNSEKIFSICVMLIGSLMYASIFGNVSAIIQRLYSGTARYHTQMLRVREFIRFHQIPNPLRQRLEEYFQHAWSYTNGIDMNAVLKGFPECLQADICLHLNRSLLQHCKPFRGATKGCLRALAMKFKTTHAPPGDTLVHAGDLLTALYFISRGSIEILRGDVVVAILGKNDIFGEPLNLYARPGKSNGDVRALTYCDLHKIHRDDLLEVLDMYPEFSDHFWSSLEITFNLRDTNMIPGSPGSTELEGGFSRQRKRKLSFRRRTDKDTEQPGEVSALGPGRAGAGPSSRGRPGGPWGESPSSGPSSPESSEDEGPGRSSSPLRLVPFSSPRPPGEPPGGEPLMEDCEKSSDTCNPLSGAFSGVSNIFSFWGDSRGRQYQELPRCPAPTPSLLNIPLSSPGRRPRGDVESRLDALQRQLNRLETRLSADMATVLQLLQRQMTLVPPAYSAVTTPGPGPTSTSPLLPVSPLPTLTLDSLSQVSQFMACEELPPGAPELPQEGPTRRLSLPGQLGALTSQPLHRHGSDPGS
T1 sequence (P22303 32-614): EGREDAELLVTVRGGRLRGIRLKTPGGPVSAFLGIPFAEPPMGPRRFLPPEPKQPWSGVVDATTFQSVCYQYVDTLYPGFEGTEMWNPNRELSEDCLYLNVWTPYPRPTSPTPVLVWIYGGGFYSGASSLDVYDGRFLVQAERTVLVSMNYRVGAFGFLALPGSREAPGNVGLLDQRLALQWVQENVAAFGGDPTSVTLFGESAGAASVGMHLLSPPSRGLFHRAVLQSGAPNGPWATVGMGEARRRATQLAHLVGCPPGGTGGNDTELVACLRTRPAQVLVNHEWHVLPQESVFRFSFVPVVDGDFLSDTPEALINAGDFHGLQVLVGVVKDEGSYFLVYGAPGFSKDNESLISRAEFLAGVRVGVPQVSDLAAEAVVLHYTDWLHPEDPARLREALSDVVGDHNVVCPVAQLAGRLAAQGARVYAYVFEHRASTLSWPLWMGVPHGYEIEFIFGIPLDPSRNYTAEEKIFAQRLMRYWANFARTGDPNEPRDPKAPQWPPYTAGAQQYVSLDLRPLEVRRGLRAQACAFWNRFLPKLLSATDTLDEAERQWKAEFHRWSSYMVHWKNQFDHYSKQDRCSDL

Compound | chromatographic logD [1] | fraction unbound at 4 h, 5 μM [2] | PD/IL6 mouse top DR 0.01-10 mM: Systemic level @ 10 mM - 2 hrs [3] [nM] | pKa [4] | dermis concentration [5] [µM] | measured flux 6-24 hr [5] [ng/cm^2/hr] | rFU [6] [%] | Safety panel (Cerep): target with > 50% inh @ 10 microM [7] | AMES [8] | increase in the mean number of revertants [8] | IC50 [9] [µM] | dermis concentration, times higher compared to Ruxolitinib [10] | plasma exposure, times lower compared to Ruxolitinib [10] | skin/plasma ratio, times higher compared to Ruxolitinib [10] | Thermodynamic sol PG_H2O pH 6 2/8 [11] | PD/IL6 mouse top DR 0.01-10 mM: Systemic level @ 10 mM - 2 hrs [12] [nM]
CC1(C)CCN(C(=O)C[C@H]2C[C@@H](Nc3c(C#N)cnc4[nH]ccc34)C2)CC1 [Compound A, 4-(((cis)-3-(2-(4,4-dimethylpiperidin-1-yl)-2-oxoethyl)cyclobutyl)amino)-1H-pyrrolo[2,3-b]pyridine-5-carbonitrile] | 2.7 | 0.1 | 9.8 | 3.7 | 0.25 | 2.5 | 3.6 | acetylcholinesterase | Neg/Neg | did not induce a biologically significant increase | > 30 | 2.4 | 2.9 | 7 | 454 microM and 0.17 mg/mL | –
CC1CCN(C(=O)C[C@H]2C[C@@H](Nc3c(C#N)cnc4[nH]ccc34)C2)CC1 [Compound B, 4-(((cis)-3-(2-(4-Methylpiperidin-1-yl)-2-oxoethyl)cyclobutyl)amino)-1H-pyrrolo[2,3-b]pyridine-5-carbonitrile] | 2.2 | 0.083 | – | – | 0.9 | 2.4 | 2.8 | – | Neg/Neg | did not induce a biologically significant increase | > 30 | – | – | – | 223 microM and 0.08 mg/mL | 9.8
